The star is where a group is joined. Cbz = O=C(OCc1ccccc1)*; CH2F = FC*
Key:
[1] = biological target: T1, caspase (Homo sapiens, UniProt P42574); assay: Intracellular caspase assay on FMAT 8100: caspase inhibitors on cleavage of peptide conjugate 9 in NT-2 cells; type: cell-based; settings: inhibitor at 50 μM, NT-2 cells with CMP to induce apoptosis (FIG. 10)
T1 construct: endogenous in cells; host or cells: NT-2 cells
T1 sequence (P42574 29-175 limits assumed): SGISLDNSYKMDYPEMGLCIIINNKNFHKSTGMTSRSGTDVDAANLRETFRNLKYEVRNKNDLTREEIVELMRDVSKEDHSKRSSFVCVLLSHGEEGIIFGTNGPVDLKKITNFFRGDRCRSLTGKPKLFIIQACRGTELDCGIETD
T1 sequence (P42574 176-277 limits assumed): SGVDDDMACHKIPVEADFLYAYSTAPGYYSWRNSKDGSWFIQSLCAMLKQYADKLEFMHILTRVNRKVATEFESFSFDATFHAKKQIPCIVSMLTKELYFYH
Procedure: (§1) One method for introducing the peptide conjugates into cells to induce apoptosis and measure caspase activity includes the following steps: • 1. […] The cells will adhere to well bottoms in 1 to 24 hours. Any number of different sample cells or any combination of cells, inhibitors or apoptosis inducers can be assayed. Typically 10,000 cells per well are plated in about 100 μl of tissue culture media. • 2. Add an apoptosis inducer, e.g. camptothecin or staurosporine, dissolved in media and/or solvent. Different concentrations can be used to study dose-response. • 3. Let the cells stand for about 24 hours at 37° C., depending on the inducer. • 4. […] Let stand for about 90 minutes at 37° C. • 5. Transfer plates to a fluorescent plate reading device, cell sorter, flow cytometer, laser imager, microscope, or other device and read the content of the wells.
The plate was incubated at 37° C. for 90 minutes.

[2] = test system: NT-2 cells; assay: Intracellular caspase assay on FMAT 8100 HTS System with peptide conjugate 9: apoptosis induction; type: cell-based, Human
Procedure: One method for introducing the peptide conjugates into cells to induce apoptosis and measure caspase activity includes the following steps: • 1. Plate the eukaryotic cells in RPMI 1640 media in the wells of a tissue culture-treated 96-well plate at 37° C. The cells will adhere to well bottoms in 1 to 24 hours. Any number of different sample cells or any combination of cells, inhibitors or apoptosis inducers can be assayed. Typically 10,000 cells per well are plated in about 100 μl of tissue culture media. • 2. Add an apoptosis inducer, e.g. camptothecin or staurosporine, dissolved in media and/or solvent. Different concentrations can be used to study dose-response. • 3. Let the cells stand for about 24 hours at 37° C., depending on the inducer. • 4. Add the peptide conjugate, dissolved in media and/or solvent in a range of 1 to 10 μM, e.g. 2.5 μM, to every well, including controls. Let stand for about 90 minutes at 37° C. • 5. Transfer plates to a fluorescent plate reading device, cell sorter, flow cytometer, laser imager, microscope, or other device and read the content of the wells.
A data spreadsheet assigns numerical values of fluorescence intensity and peak heights. The greyscale image has intensity content, like an autoradiogram. […] The cells are simply counted by a cell counting algorithm as either blue or red depending on the ratio of channel 2 to channel 1 fluorescence intensity, and independent of intensity values. The fraction of apoptotic cells is determined by identifying the apoptotic population in each well and dividing by the total number of cells detected. The ratio of red (channel 2) to blue (channel 1) inversely correlates to the apoptotic fraction. In other words:
[formula] […] Effects of introducing apoptosis inducers and caspase inhibitors to different cells under variable conditions can thus be measured by the mix-and-read protocols on the FMAT 8100 System. A dose response is determined when this fraction (% apoptotic) is plotted as a function of the concentration of camptothecin in the well (FIG. 11), and other apoptosis inducers (FIGS. 12 and 13). […]

[3] = test system: Jurkat cells; assay: Intracellular caspase assay with peptide conjugate 9: apoptosis induction; type: cell-based, Human; settings: peptide conjugate 9 (FIG. 13)
Procedure: as §1
(§2) A data spreadsheet assigns numerical values of fluorescence intensity and peak heights. The greyscale image has intensity content, like an autoradiogram. […] The cells are simply counted by a cell counting algorithm as either blue or red depending on the ratio of channel 2 to channel 1 fluorescence intensity, and independent of intensity values. The fraction of apoptotic cells is determined by identifying the apoptotic population in each well and dividing by the total number of cells detected. […]

[4] = test system: HeLa cells; assay: as above; type: cell-based, Human; settings: peptide conjugate 9 (FIG. 13)
Procedure: as §1, §2

Molecule: Cbz-Val-Ala-Asp-CH2F
- Suppression of cleavage of peptide conjugate 9 [1]: complete suppression

Molecule: CC[C@@]1(O)C(=O)OCc2c1cc1n(c2=O)Cc2cc3ccccc3nc2-1 [camptothecin]
- Induction of apoptosis / caspase activity (donor dye emission, channel 1) ([2]; 500 nM, peptide conjugate 9 (FIG. 9)): caspase activity is evident
- Dose response: fraction of apoptotic cells ([2]; 0.0001 to 10 μM, 24 hours, peptide conjugate 9 (FIG. 11)): fraction of apoptotic cells correlates with camptothecin concentration

Molecule: CN[C@@H]1C[C@H]2O[C@@](C)([C@@H]1OC)n1c3ccccc3c3c4c(c5c6ccccc6n2c5c31)C(=O)NC4 [staurosporine]
- Threshold concentration above which fraction of apoptotic cells correlates with concentration [3]: about 0.05 μM
- Threshold concentration above which fraction of apoptotic cells correlates with concentration [4]: ~0.5 µM

Molecule: COc1cccc2c1C(=O)c1c(O)c3c(c(O)c1C2=O)C[C@@](O)(C(=O)CO)C[C@@H]3O[C@H]1C[C@H](N)[C@H](O)[C@H](C)O1 [doxirubicin]
- Concentration above which most of the cells were detected as apoptotic ([2]; peptide conjugate 9 (FIG. 12)): about 0.1 μM
